Laboratory results published in patent publication US20040028610A1, “Method of increasing the sensitivity of mammography” (priority 2003, published 2004).
Entries after “also recorded” stand apart in the source; their conditions may differ.

What was measured:
breast tissue [1] = assay: Treatment with parenteral (intramuscular) androgen preparation, then mammography and manual breast examination; assay type: in vivo, human (pre and postmenopausal women)
Description: Patients in need of breast cancer examinations were provided parenteral administration of androgen preparations in the clinical setting. Lakeview Pharmacy, Inc. prepared the compounded equivalent of Depo-Testosterone (Testosterone Cypionate 200 mg/ml dissolved in Cottonseed Oil and preserved with Benzyl Benzoate USP and Benzyl Alcohol NF.) in a multi-use vial. The androgen preparation was administered in a dose of about 150 mg to about 200 mg per month for the treatment of fibrocystic breast disorders. The treating physician delivered the preparation intramuscularly in a single dose. The preparation was given to approximately 40 pre and postmenopausal women ranging in age from 24 to 80 years of age. The patients were then scheduled for a mammogram at least one month but not more than three months after commencement of administration of the androgen preparation.
(§1) In advance of the mammographic procedure, patients were instructed to not wear deodorant (the crystals cause difficulty in reading the films). […] A Picker Digital Mammogram was used to take the frontal and side views of the breast tissue bilaterally. Minimums of two views were taken per breast. The films were then interpreted by a radiologist with experience in interpreting mammograms and graded with the BI-RADS system.

breast tissue [2] = assay: Treatment with topical androgen preparation (PCA cream), then mammography and manual breast examination; assay type: in vivo, human (pre and postmenopausal women)
Description: as §1
Patients in need of breast cancer examinations were provided topical formulations for administration of androgen preparations in the outpatient setting. Lakeview Pharmacy, Inc made up the compounded equivalent of Depo-Testosterone (150 mg of testosterone cypionate mixed in PCA cream) with an application of 6 inches squeezed from a multi-use tube of the mixture and rubbed into the skin on a daily basis. The androgen preparation was administered as a total monthly dose from about 150 mg to about 200 mg. The formulation was given to approximately 15 pre and postmenopausal women ranging in age from 24 to 80 years of age. The patient was then scheduled for a mammogram at least one month but not more than two months after administration of the androgen preparation. Mammography was performed as described in Example 1.

breast tissue [3] = assay: Administration of testosterone to female patients with dense or fibrous breasts (summary statements); assay type: in vivo, human (pre- and post-menopausal women)
[4] = patients presenting with dense breast tissue and attendant mastalgia
[5] = pre- and post-menopausal women with fibrous or dense breasts

Structure (SMILES)	alteration of the menstrual cycle by the medication (breast tissue [1])	radiographic breast density on mammographic images (breast tissue [1]; about 150 mg to about 200 mg per month, approximately 40 women, seen after only one monthly treatment, films graded with BI-RADS)	breast palpability by manual examination (breast tissue [1]; about 150 mg to about 200 mg per month, seen after only one monthly treatment)	mammographic changes in density, patients affected (breast tissue [1]; most significant in those patients with dense breasts)	lesions requiring 6-month follow up, at second mammogram (breast tissue [1]; sustained treatment for 6 or more months, some lesions)	effects on radiographic and palpable density after two months of treatment (versus one month) (breast tissue [1]; two months of androgen treatment prior to examination)	alteration of the menstrual cycle by the medication (breast tissue [2]; topical)	radiographic breast density on mammographic images (breast tissue [2]; topical PCA cream daily, total monthly dose about 150 mg to about 200 mg, approximately 15 women, seen after only one monthly treatment)	breast palpability by manual examination (breast tissue [2]; topical PCA cream daily, total monthly dose about 150 mg to about 200 mg, seen after only one monthly treatment)	mammographic changes in density, patients affected (breast tissue [2]; topical, most significant in those patients with dense breasts)	lesions requiring 6-month follow up, at second mammogram (breast tissue [2]; topical, sustained treatment for 6 or more months, some lesions)	effects on radiographic and palpable density after two months of treatment (versus one month) (breast tissue [2]; topical, two months of androgen treatment prior to examination)	visualization of breast tissue in mammographic procedures (breast tissue [3]; female patients with dense breast tissue)	mammographic opacity and overall density (breast tissue [3]; [4])	palpability of breast tissue during manual examination (breast tissue [3]; [4])	number or size of fibrous (fibrocystic) breast lesions (breast tissue [3]; [5])	palpable breast density (breast tissue [3]; [5])	radiographic density (breast tissue [3]; [5])	symptoms secondary to cyclic causes (sense of breast fullness or heaviness) (breast tissue [3]; [5])
C[C@]12CC[C@H]3[C@@H](CCC4=CC(=O)CC[C@@]43C)[C@@H]1CC[C@@H]2OC(=O)CCC1CCCC1 [Testosterone Cypionate]	nor did the medication alter the menstrual cycle	appreciable reduction	improved	noted in all patients	disappeared	More significant effects	nor did the medication alter the menstrual cycle	appreciable reduction	improved	noted in all patients	disappeared	More significant effects							
C[C@]12CC[C@H]3[C@@H](CCC4=CC(=O)CC[C@@]43C)[C@@H]1CC[C@@H]2O [testosterone]													significantly improved	marked reduction	significantly improved	decrease; also recorded: reduced	decrease	decrease	eliminated; also recorded: reduced
